The test system of data set [1] is HIV-1Ba-L. The data set is described as follows: Inhibition of virus replication in MAGI-CCR5 cells (β-galactosidase reporter). The class given is cell-based. Conditions: HIV-1Ba-L in MAGI-CCR5 cells; for IC50: Human immunodeficiency virus 1, 48 hours, β-galactosidase reporter expression, read-out: IC50. Here is the method:
(§1) The anti-viral activity of dihydropyrimidines was shown by inhibition of virus replication in MAGI-CCR5 cells. MAGI-CCR5 cells are derived from HeLa-CD4-LTR-β-galactosidase cells. The cells have been engineered to express high levels of CD4 and CCR5 and contain one copy of the HIV-1 LTR promoter driving expression of the β-galactosidase gene upon HIV-1 Tat transactivation. On the day preceding the assay, the cells were plated at 1.0×10^4 cells per well and maintained at 37° C. and 5% CO2 in a humidified incubator. Total cell count and viability was visually assessed using a hemacytometer and trypan blue exclusion.
Compounds were evaluated at six concentrations (triplicate wells/concentration). On the day of assay setup, compound dilutions were prepared at two-times (2×) the final concentrations. Media was decanted and wells were replenished with 50 μl of 2× compounds, followed by the addition of 50 μl of diluted virus. Identical uninfected assays were prepared for parallel cytotoxicity testing.
Evaluation of Dihydropyrimidines vs. HIV-1Ba-L in MAGI-CCR5 Cells

Data set [2] can be described thus: Cytotoxicity by MTS staining in uninfected MAGI-CCR5 cells. Type of data set: cell-based. To be noted: human, read-out: TC50. Here is the method: as §1, with “exclusion. Compounds were evaluated at six concentrations (triplicate wells/concentration). On the day of assay setup, compound dilutions were prepared at two-times (2×) the final concentrations. Media was decanted and wells were replenished with 50 μl of 2× compounds, followed by the addition of 50 μl of diluted virus. Identical uninfected assays were prepared for parallel cytotoxicity testing.” for “exclusion.”

The test system of data set [3] is HIV-1Ba-L. Nature of the data set: HIV-1Ba-L replication in PBMCs (supernatant RT end-point). To be noted: for IC50: Human immunodeficiency virus 1, PBMC, 168 h; for TI (TC50/IC50): HIV-1Ba-L in PBMCs. Here is the method:
Evaluation of Dihydropyrimidines vs. HIV-1Ba-L in Peripheral Blood Mononuclear Cells (PBMCs)
Cultures of pooled phytohemagglutinin stimulated peripheral blood mononuclear cells (PBMC) were seeded into a 96-well plate at plating density of 5×10^4 cells/well. Compounds were serially diluted into media in ½-log increments using a high test of […] and […] of each concentration (nine total concentrations). Cells were infected with HIV strains HIV-1Ba-L and NL4-3 at an MOI=0.1. The PBMCs were cultured for seven days in an humidified incubator maintained at 37° C., 5% CO2 atmosphere. At the assay end-point, the supernatant was collected and analyzed for reverse transcriptase activity. For the RT assay, tritiated thymidine triphosphate (3H-TTP, 80 Ci/mmol) was diluted 1:1 dH2O:Ethanol at 1 mCi/ml. Poly rA:oligo dT template:primer was prepared as a stock solution by combining 150 μl poly rA (20 mg/ml) with 0.5 mL oligo dT (20 units/ml) and 5.35 ml sterile dH2O followed by aliquoting (1.0 ml) and storage at −20° C. The RT reaction buffer contained of 125 ml 1.0 M EGTA, 125 ml dH2O, 125 ml 20% Triton X100, 50 ml 1.0 M Tris (pH 7.4), 50 ml 1.0 M DTT, and 40 ml 1.0 M MgCl2. The final reaction mixture was prepared by combining 1 part 3H-TTP, 4 parts dH2O, 2.5 parts poly rA:oligo dT stock and 2.5 parts reaction buffer. To each well, ten microliters of the reaction mixture and 15 μl of virus containing supernatant were added. The plates were incubated at 37° C. for 60 minutes. Following incubation, the reaction volume was spotted onto DE81 filter-mats, washed 5 times for 5 minutes each in a 5% sodium phosphate buffer or 2×SSC. […] were washed 2 times for 1 minute each in distilled water, 2 times for 1 minute each in 70% ethanol, and then dried. Incorporated radioactivity (counts per minute, CPM) was quantified using standard liquid scintillation techniques.

Data set [4] in a line: Cytotoxicity by MTS staining in PBMCs. The class given is cell-based. Conditions: human, peripheral blood mononuclear cells (PBMC), MTS staining, read-out: TC50. Here is the method: Cytotoxicity was assessed by MTS staining. At assay end-point, PBMC were stained with the addition of […] of the soluble tetrazolium-based dye MTS to determine cell viability and quantify compound toxicity. The plates were incubated 4 to 6 hrs at 37° C. Following incubation, the activity was assessed by reading absorbance values at 490/650 nm.

One may read the IC50 as the concentration needed to halve the response being measured.

Molecules are shown by their SMILES.

As for `c1cc(CN2CCCNCCNCCCNCC2)ccc1CN1CCCNCCNCCCNCC1` [AMD 3100, reference compound], the IC50 in data set [1] and in data set [3] was > 10 µM each time. Moreover, in data set [2], the CC50 at 48 h was > 10 µM. The CC50 at 7 days in data set [4] is > 10 µM.
`CC1=C(c2nc(-c3ccc(C#N)cc3)cs2)C(c2ccc(Cl)nc2)NC(=O)N1` (stereo not shown) [Example 3]: in data set [1], the “TI (TC50/IC50)” value was “A (A = TI (TC50/IC50) ≧ 100.0)” and the IC50 was 1 to 5 µM. In data set [2], the CC50 at 48 h was ≥ 100 µM. Further, in data set [3], the “TI (TC50/IC50)” value is reported as “A (A = TI (TC50/IC50) ≧100.0)” and the concentration for half-maximal inhibition (IC50) was < 1 µM. In addition, the CC50 at 7 days in data set [4] was ≥ 100 µM.
On to `CC1=C(c2nc(-c3ccc(C#N)cc3)cs2)C(c2ccnc3ccccc23)NC(=O)N1` (stereo not shown) [Example 15], for which, in data set [1], the “TI (TC50/IC50)” value is “B (B < 100.0-50.0)” and the IC50 was 1 to 5 µM. Also, the CC50 at 48 h in data set [2] is ≥ 100 µM. In data set [3], the “TI (TC50/IC50)” value is “B (B < 100.0-50.0)” and the IC50 was in the range of 1 to 5 µM. Also, in data set [4], the CC50 at 7 days is ≥ 100 µM.
As to `CC1=C(c2nc(-c3ccc(C#N)cc3)cs2)C(c2ccc(=O)[nH]c2)NC(=O)N1` (stereo not shown) [Example 18], in data set [1], the “TI (TC50/IC50)” value is on record as “D (D < 10.0)” and the IC50 is > 100 µM. In data set [2], the CC50 at 48 h was ≥ 100 µM. Moreover, in data set [3], the “TI (TC50/IC50)” value is “D (D < 10.0)” and the IC50 was > 100 µM. In addition, the CC50 at 7 days in data set [4] was ≥ 100 µM.
`CC1=C(c2nc(-c3ccc(C#N)cc3)cs2)C(c2ccc3cccc(O)c3n2)NC(=O)N1` (stereo not shown) [Example 23]: in data set [1], the “TI (TC50/IC50)” value is “A (A = TI (TC50/IC50) ≧ 100.0)” and the IC50 was < 1 µM. Also, the CC50 at 48 h in data set [2] was in the range of 50 to 100 µM. Besides, in data set [3], the “TI (TC50/IC50)” value is “A (A = TI (TC50/IC50) ≧100.0)” and the IC50 was < 1 µM. The CC50 at 7 days in data set [4] was ≥ 100 µM.
Regarding `CC1=C(c2nc(-c3ccc(C#N)cc3)cs2)C(c2ccc(F)c([N+](=O)[O-])c2)NC(=O)N1` (stereo not shown) [Example 60], in data set [1], the “TI (TC50/IC50)” value is reported as “C (C < 50.0 to 10.0)” and the IC50 lay within 5 to 100 µM. Besides, the CC50 at 48 h in data set [2] was ≥ 100 µM.
As to `CC1=C(c2nc(-c3ccc(C#N)cc3)cs2)C(c2ccc(Cl)c(OC(F)(F)F)c2)NC(=O)N1` (stereo not shown) [Example 61], in data set [1], the “TI (TC50/IC50)” value was “D (D < 10.0)” and the IC50 is 5 to 100 µM. The CC50 at 48 h in data set [2] is ≥ 100 µM.
Take `CC1=C(c2nc(-c3ccc(C#N)cc3)cs2)C(c2cccc(OC(F)(F)F)c2)NC(=O)N1` (stereo not shown) [Example 62]: in data set [1], the “TI (TC50/IC50)” value is “D (D < 10.0)” and the IC50 was 5 to 100 µM. In addition, in data set [2], the CC50 at 48 h is ≥ 100 µM.
As to `CC1=C(c2nc(-c3ccc(C#N)cc3)cs2)C(c2ccc(OC(F)(F)F)cc2)NC(=O)N1` (stereo not shown) [Example 63], in data set [1], the “TI (TC50/IC50)” value is reported as “D (D < 10.0)” and the IC50 lay in the range of 5 to 100 µM. The CC50 at 48 h in data set [2] is ≥ 100 µM.
For `COc1cccc(C2NC(=O)NC(C)=C2c2nc(-c3ccc(C#N)cc3)cs2)c1` (stereo not shown) [Example 65] the same measures were “C (C < 50.0 to 10.0)”, 1 to 5 µM and ≥ 100 µM.
`CC1=C(c2nc(-c3cccc(C#N)c3)cs2)C(c2cccc(O)c2)NC(=O)N1` (stereo not shown) [Example 66]: in data set [1], the “TI (TC50/IC50)” value is “D (D < 10.0)” and the IC50 fell in the range of 5 to 100 µM. Further, in data set [2], the CC50 at 48 h lay in the range of 50 to 100 µM.
The like results for `CC1=C(c2nc(-c3cccc(C#N)c3)cs2)C(c2ccc(O)cc2)NC(=O)N1` (stereo not shown) [Example 67] were, in that order, “D (D < 10.0)”, 5 to 100 µM and 50 to 100 µM.
Regarding `COc1ccc(C2NC(=O)NC(C)=C2c2nc(-c3ccc(C#N)cc3)cs2)cc1O` (stereo not shown) [Example 72], in data set [1], the “TI (TC50/IC50)” value is “A (A = TI (TC50/IC50) ≧ 100.0)” and the IC50 is < 1 µM. Besides, the CC50 at 48 h in data set [2] is ≥ 100 µM.
As for `CC1=C(c2nc(-c3ccc(C)cc3)cs2)C(c2cccc(O)c2)NC(=O)N1` (stereo not shown) [Example 73], in data set [1], the “TI (TC50/IC50)” value is “D (D < 10.0)” and the IC50 fell in the range of 5 to 100 µM. In data set [2], the CC50 at 48 h fell in the range of 50 to 100 µM.
For `CC1=C(c2nc(-c3ccc(C(F)(F)F)cc3)cs2)C(c2cccc(O)c2)NC(=O)N1` (stereo not shown) [Example 75] the same measures were “D (D < 10.0)”, 5 to 100 µM and < 50 µM.
For `CC1=C(c2nc(-c3ccc([N+](=O)[O-])cc3)cs2)C(c2cccc(O)c2)NC(=O)N1` (stereo not shown) [Example 76] the same measures were “A (A = TI (TC50/IC50) ≧ 100.0)”, < 1 µM and ≥ 100 µM.
In the case of `CC1=C(c2nc(-c3ccc(C#N)cc3)cs2)C(c2cc(C(F)(F)F)cc(C(F)(F)F)c2)NC(=O)N1` (stereo not shown) [Example 77], in data set [1], the “TI (TC50/IC50)” value is listed as “D (D < 10.0)” and the IC50 was > 100 µM. Besides, the CC50 at 48 h in data set [2] is ≥ 100 µM.
For `CC1=C(c2nc(-c3ccc(C#N)cc3)cs2)C(c2cc(O)ccc2O)NC(=O)N1` (stereo not shown) [Example 78] the same measures were “D (D < 10.0)”, 5 to 100 µM and ≥ 100 µM.
On to `CC1=C(c2nc(-c3ccc(C#N)cc3)cs2)C(c2ccc(O)c(O)c2)NC(=O)N1` (stereo not shown) [Example 79], for which, in data set [1], the “TI (TC50/IC50)” value was “A (A = TI (TC50/IC50) ≧ 100.0)” and the IC50 was < 1 µM. Besides, in data set [2], the CC50 at 48 h is ≥ 100 µM.
`CC1=C(c2nc(-c3ccc(C#N)cc3C)cs2)C(c2cccnc2F)NC(=O)N1` (stereo not shown) [Example 82]: in data set [1], the “TI (TC50/IC50)” value is “A (A = TI (TC50/IC50) ≧ 100.0)” and the IC50 is < 1 µM. In addition, in data set [2], the CC50 at 48 h was in the range of 50 to 100 µM.
The like results for `CC1=C(c2nc(-c3ccc(C#N)cc3C)cs2)C(c2ccc(Br)nc2)NC(=O)N1` (stereo not shown) [Example 84] were, in that order, “B (B < 100.0-50.0)”, < 1 µM and < 50 µM.
As to `COc1ccc(C2NC(=O)NC(C)=C2c2nc(-c3ccc(C#N)cc3C)cs2)cn1` (stereo not shown) [Example 85], in data set [1], the “TI (TC50/IC50)” value is on record as “B (B < 100.0-50.0)” and the IC50 is < 1 µM. In addition, the CC50 at 48 h in data set [2] is < 50 µM.
For `CC1=C(c2nc(-c3ccc(C#N)cc3)cs2)C(Cc2ccccc2)NC(=O)N1` (stereo not shown) [Example 88] the same measures were “C (C < 50.0 to 10.0)”, 1 to 5 µM and ≥ 100 µM.
For `CC1=C(c2nc(-c3ccc(C#N)cc3)cs2)C(Cc2ccc(C)cc2)NC(=O)N1` (stereo not shown) [Example 94], in data set [1], the “TI (TC50/IC50)” value is “C (C < 50.0 to 10.0)” and the IC50 was 1 to 5 µM. Further, the CC50 at 48 h in data set [2] is 50 to 100 µM.
Regarding `CC1=C(c2nc(-c3ccc(F)cc3)cs2)C(Cc2ccc(C)cc2)NC(=O)N1` (stereo not shown) [Example 95], in data set [1], the “TI (TC50/IC50)” value is on record as “D (D < 10.0)” and the IC50 was > 100 µM. Moreover, the CC50 at 48 h in data set [2] was ≥ 100 µM.
For `CC(C)(C)NC(=O)[C@@H]1CN(Cc2cccnc2)CCN1C[C@@H](O)C[C@@H](Cc1ccccc1)C(=O)N[C@H]1c2ccccc2C[C@H]1O` [Indinavir, reference compound], in data set [3], the “TI (TC50/IC50)” value is listed as >21.0 and half-maximal inhibition (IC50) required 0.048 µM. The CC50 at 7 days in data set [4] was > 1 µM.

Values taken from patent US9120787B2, “HIV replication inhibitors” (priority 2011, dated 2015).
